Experiment [1] deals with T1, human PDE3 (Homo sapiens, UniProt Q14432).
T1 construct: Isolated human platelets are pre-incubated at 25° C; from tissue; host or cells: human platelets
The experiment can be described thus: Human PDE3 assay (platelets). As to conditions: 10 μM concentration. The format is biochemical. The method, then: (§1) All compounds were dissolved in dimethyl sulfoxide (DMSO). Final concentration of the DMSO in all tests was 1% (v/v). Inhibition in all tests is considered preferred if it exceeds 50% at 10 μM concentration (or less).
PDE3 assay. Isolated human platelets are pre-incubated at 25° C. in Tris-HCl buffer containing magnesium ions for 15 minutes. 1.01 μM tritium labeled cyclic adenosine monophosphate (cAMP) is added as substrate, followed by incubation at 25° C. for 20 minutes. Percentage of inhibition is calculated by comparing the adenosine levels in supernatant which is formed from cAMP in treated versus control cells.

In experiment [2] the target is T2, CysLT1 receptor (Homo sapiens, UniProt Q9Y271).
T2 construct: expressed in transfected cells; host or cells: CHO-K1
T2 sequence (Q9Y271 1-337): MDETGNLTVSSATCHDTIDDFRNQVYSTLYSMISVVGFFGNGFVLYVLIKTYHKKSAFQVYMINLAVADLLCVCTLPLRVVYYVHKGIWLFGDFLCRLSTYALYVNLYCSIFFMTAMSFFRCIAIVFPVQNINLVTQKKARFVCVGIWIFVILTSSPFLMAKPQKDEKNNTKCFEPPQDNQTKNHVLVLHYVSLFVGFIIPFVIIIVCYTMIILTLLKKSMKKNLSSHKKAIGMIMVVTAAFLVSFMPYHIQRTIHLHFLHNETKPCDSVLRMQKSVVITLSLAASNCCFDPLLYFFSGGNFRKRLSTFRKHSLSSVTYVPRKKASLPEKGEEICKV
The experiment can be described thus: Human cysteinyl leukotriene receptor 1 (CysLT1) radioligand binding assay. As to conditions: 10 μM concentration; CHO-K1 cells. The method, then: as §1
CysLT1 receptor is involved in immune diseases such as asthma, and has clinical significance as a point of intervention in asthma therapy. CysLT1 receptor is expressed in CHO-K1 cells (Chinese hamster ovary cells K1 clone). This is a competitive radioligand binding assay where substances compete with [^3H]-labeled Leulcotirene D4 (LTD4). Radioactive substance is measured with scintillation counting. Percentage of inhibition is calculated from the total radioactivity of the sample.

In experiment [3] the test system is human PDE4. The experiment can be described thus: Human PDE4 assay (U937). The format is biochemical. Particulars: 10 μM concentration. The method, then: as §1
PDE4 assay. PDE is implicated in diseases such as chronic obstructive pulmonary disease and neutrophilia. Human monocytic leukemia cell line U937 is pre-incubated at 25° C. in Tris-HCl buffer containing magnesium ions for 15 minutes. 1.01 μM tritium labeled cyclic adenosine monophosphate (cAMP) is added as substrate, followed by incubation at 25° C. for 20 minutes. Percentage of inhibition is calculated by comparing the adenosine levels in supernatant which is formed from cAMP in treated versus control cells.

Experiment [4] deals with CD1 mice. The experiment can be described thus: PMA induced ear oedema in CD1 mice. It is filed as in vivo, mouse. As to conditions: topical, single dose of 250 or 100 μg/15 μL/ear; statistically significant vs positive control. The method, then: Male CD1 mice (Iffa Credo, France) weighing ˜35-40 g were randomly grouped (n=8 in vehicle treated test group, dexamethasone treated control group as well as in groups treated with compounds to be assayed). Test compounds, dexamethasone as well as vehicle (Trans-phase Delivery System, containing benzyl alcohol 10%, acetone 40% and isopropanol 50%) (all from Kemika, Croatia), were administered topically to the internal surface of the left ear thirty minutes prior to administration of phorbol 12-myristate 13-acetate (PMA) (Alexis biochemicals, USA). Test compounds were administered at a single dose of 250 or 100 μg/15 μL/ear and dexamethasone at a single dose of 50 μg/15 μL/ear. Thirty minutes later, 0.01% PMA solution in acetone was applied topically to the same area of each animal in a volume of 12 μL/ear. During the treatment and challenge, animals were anaesthetized by using inhalation anaesthesia. Six hours after the challenge, animals were euthanized by asphyxiation in 100% CO2 atmosphere. For assessing the auricular oedema, 8 mm discs were cut out of left and right auricular pinna and weighed. The degree of oedema was calculated by subtracting the weight of 8 mm disc of the untreated ear from that of the treated contralateral ear.

Experiment [5] concerns Balb/C mice. The experiment can be described thus: Ovalbumin induced pulmonary eosinophilia in mice. It is filed as in vivo, mouse. Particulars: OVA sensitized and challenged mice; i.n., i.p. or per os. The method, then: Male Balb/C mice with a body weight of 20-25 g are randomly divided into groups, and sensitized by an i.p. injection of ovalbumin (OVA, Sigma) on day zero and day fourteen. On the twentieth day, the mice are subjected to a challenge test by i.n. (intranasal) application of OVA (positive control or test groups) or PBS (negative control). The compounds are administered daily i.n., i.p. or per os in different doses starting 2 days before the challenge and up to the completion of the test. Compounds are administered as suspension either in PBS, methyl cellulose or carboxymethyl cellulose with addition od DMSO (up to 5% of the total volume). 48 hours after i.n. application of OVA, the animals are then anaesthetized to obtain bronchoalveolar lavage fluid (BALF), which is used to determine total protein concentration as well as concentrations of cytokines such as IL-1β and TNF-α, absolute number of cells, and percentage of eosinophils in BALF. Bronchoalveolar lavage (BAL) is performed by infusing 1 mL of PBS divided into 3 separate volumes (0.4, 0.3 and 0.3 ml) through trachea into the lungs. The fluid is immediately withdrawn and the cell suspension stored into previously prepared 1.5 mL Eppendorf tube. Bronchoalveolar lavage fluid (BALF) is then centrifuged at […] for 5 min (4° C.). Cells are resuspended in 700 μL of PBS. To prepare cytospins, 320 μL of suspension is centrifuged at 250 rpm for 10 min (Cytospin-3, Shandon Instruments). Cells are stained with Dif-Quik (Dade Behring) to determine percentage of eosinophils by counting of at least 100 cells. The remaining resuspended cells are used for total cell count in BALF analysis (Sysmex SF 3000). Finally, lungs are sampled and stored into 10% formalin for pathohistological evaluation of eosinophil and mononuclear infiltrate. Accumulation of eosinophils and mononuclear cells in peribronchial (PB) and perivascular (PV) lung tissue areas and in alveolar spaces is monitored.
Results can be expressed as (I) decrease of absolute cell number per mL in BALF, (II) decrease of number of eosinophils per mL in BALF, (III) reduction of relative number (percentage) of eosinophils in BALF, (IV) reduction of cytokine concentrations in BALF, as well as (V) suppression of accumulation of eosinophils and mononuclear cells in peribronchial (PB) and perivascular (PV) lung tissue areas and in alveolar spaces by pathohistological scoring of treated animals compared to positive control (OVA stimulated, but untreated animals).
Fluticasone and beclomethasone are used as standard anti-inflammatory substances, and compared for ability to inhibit eosinophilia to the negative and positive controls.

T1 sequence (Q14432 whole entry): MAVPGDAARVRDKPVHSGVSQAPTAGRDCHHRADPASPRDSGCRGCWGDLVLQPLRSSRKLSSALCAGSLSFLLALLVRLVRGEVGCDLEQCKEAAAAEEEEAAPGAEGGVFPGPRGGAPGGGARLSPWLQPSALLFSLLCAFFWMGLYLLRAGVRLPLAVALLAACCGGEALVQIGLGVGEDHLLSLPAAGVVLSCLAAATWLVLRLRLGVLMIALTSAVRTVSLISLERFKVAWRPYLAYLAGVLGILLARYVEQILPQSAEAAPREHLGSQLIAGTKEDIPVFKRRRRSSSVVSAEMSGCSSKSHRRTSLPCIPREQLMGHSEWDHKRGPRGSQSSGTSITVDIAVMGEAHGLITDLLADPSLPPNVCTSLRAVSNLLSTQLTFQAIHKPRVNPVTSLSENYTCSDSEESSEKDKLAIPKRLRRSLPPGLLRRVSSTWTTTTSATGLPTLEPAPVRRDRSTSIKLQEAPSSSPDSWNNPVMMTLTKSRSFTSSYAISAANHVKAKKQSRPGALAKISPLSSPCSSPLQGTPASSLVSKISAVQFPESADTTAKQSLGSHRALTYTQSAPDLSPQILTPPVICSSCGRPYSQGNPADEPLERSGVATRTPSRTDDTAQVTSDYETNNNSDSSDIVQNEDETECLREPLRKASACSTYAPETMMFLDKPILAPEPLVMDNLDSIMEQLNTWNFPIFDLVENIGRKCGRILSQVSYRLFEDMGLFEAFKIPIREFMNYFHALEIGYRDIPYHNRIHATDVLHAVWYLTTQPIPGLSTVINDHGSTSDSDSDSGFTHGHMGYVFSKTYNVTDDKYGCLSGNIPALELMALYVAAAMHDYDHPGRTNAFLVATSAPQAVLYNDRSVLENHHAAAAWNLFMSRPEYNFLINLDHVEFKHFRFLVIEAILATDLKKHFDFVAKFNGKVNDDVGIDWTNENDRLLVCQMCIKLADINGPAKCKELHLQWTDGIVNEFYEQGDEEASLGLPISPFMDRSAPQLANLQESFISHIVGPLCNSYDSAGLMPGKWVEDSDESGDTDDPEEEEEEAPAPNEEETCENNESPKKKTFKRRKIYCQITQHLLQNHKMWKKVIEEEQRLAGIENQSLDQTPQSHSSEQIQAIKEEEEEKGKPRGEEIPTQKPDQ

For `CC(=O)C(c1c(O)c2cccc(C(C)C)c2oc1=O)c1c(O)c2cccc(C(C)C)c2oc1=O` [Example 19], the “inhibition of human PDE3 activity” value in experiment [1] is given as “significantly inhibited”. In experiment [2], the “CysLT1 receptor, competition with [3H]-LTD4” value (from here on “CysLT1 receptor, competition”) is “significantly relevant activity”. The “inhibition of human PDE4 activity” value in experiment [3] is recorded as “significantly inhibited”. Moreover, the “suppression of ear oedema” value in experiment [4] is “considered active”. Besides, the “reduction of percentage of eosinophils and/or their total number in BALF and/or by histological scoring” value in experiment [5] was “statistically significant reduction”.

With `CC(C)c1cccc2c(O)c(C(CO)c3c(O)c4cccc(C(C)C)c4oc3=O)c(=O)oc12` [Example 30], the “inhibition of human PDE3 activity” value in experiment [1] is “significantly inhibited”. In addition, in experiment [2], the “CysLT1 receptor, competition” value is given as “significantly relevant activity”. Besides, the “inhibition of human PDE4 activity” value in experiment [3] is “significantly inhibited”. Also, in experiment [4], the “suppression of ear oedema” value is “considered active”. Also, the “reduction of percentage of eosinophils and/or their total number in BALF and/or by histological scoring” value in experiment [5] is on record as “statistically significant reduction”.

As to `CC(C)c1cccc2c(O)c(C(C(=O)OCCO)c3c(O)c4cccc(C(C)C)c4oc3=O)c(=O)oc12` [Example 50], the “inhibition of human PDE3 activity” value in experiment [1] is given as “significantly inhibited”. Moreover, the “CysLT1 receptor, competition” value in experiment [2] is reported as “significantly relevant activity”. Also, the “inhibition of human PDE4 activity” value in experiment [3] is given as “significantly inhibited”. Further, in experiment [4], the “suppression of ear oedema” value is “considered active”. In addition, the “reduction of percentage of eosinophils and/or their total number in BALF and/or by histological scoring” value in experiment [5] is reported as “statistically significant reduction”.

Source of the values: patent US20080153872A1, “Bis-(Coumarin) Compounds With Anti-Inflammatory Activity” (priority 2005, published 2008).
